This is an account of results in US8362249B2, “CXCR3 receptor antagonists” (Boehringer Ingelheim International GmbH, priority 2009, dated 2013).

The structures appear in SMILES notation.

Chain of CXCR3 (A0A2K5UV19 entry or part of it): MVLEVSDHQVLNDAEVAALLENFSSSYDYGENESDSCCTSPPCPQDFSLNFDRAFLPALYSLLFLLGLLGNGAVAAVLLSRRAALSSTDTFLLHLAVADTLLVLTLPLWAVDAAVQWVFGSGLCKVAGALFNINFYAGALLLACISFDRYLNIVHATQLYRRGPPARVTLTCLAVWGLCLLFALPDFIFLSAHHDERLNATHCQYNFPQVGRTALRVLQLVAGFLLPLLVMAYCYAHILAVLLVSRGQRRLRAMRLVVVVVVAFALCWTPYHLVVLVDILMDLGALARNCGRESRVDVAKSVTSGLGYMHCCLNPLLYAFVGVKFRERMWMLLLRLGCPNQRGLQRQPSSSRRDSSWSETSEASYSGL

The target in the experiment is CXCR3 (Macaca fascicularis, UniProt A0A2K5UV19). Description: functional cellular assay measuring calcium flux in CXCR3 transfected cells (block of CXCR3/IP-10 interaction). To be noted: IP-10 induced intracellular calcium flux; Cyno-CHO cells stably expressing recombinant CXCR3 and G-alpha-16. It is filed as cell-based. Summed up:
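Cyno-CHO cells stably co-expressing recombinant CXCR3 and G-alpha-16, loaded with Ca-4 dye (HBSS, 10 mM HEPES pH 7.4, 2 mM probenecid) for 1 h at 37 °C. Compound (10 microM final) preincubated 15 min at room temperature, then IP-10 added at EC80. Intracellular calcium flux read by fluorescence (ex 480/em 540 nm).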
Turning to `O=C(Nc1ccncc1)c1ccccc1N1CCN(C(=O)Cn2cnc3ccccc3c2=O)CC1` [2-{4-[2-(4-Oxo-4H-quinazolin-3-yl)-acetyl]-piperazin-1-yl}-N-pyridin-4-yl-benzamide], the IC50 worked out at 3.4 nM.

On to `CN(CC(=O)N1CCN(c2ccccc2C(=O)Nc2ccncc2)CC1)C(=O)c1ccccc1` [2-{4-[2-(Benzoyl-methyl-amino)-acetyl]-piperazin-1-yl}-N-pyridin-4-yl-benzamide], for which the IC50 amounted to 8.4 nM.

For `COc1cc(NC(=O)c2ccccc2N2CCN(C(=O)Cn3nc(C)cc3C)[C@@H](C)C2)ccn1` [2-{(S)-4-[2-(3,5-Dimethyl-pyrazol-1-yl)-acetyl]-3-methyl-piperazin-1-yl}-N-(2-methoxy-pyridin-4-yl)-benzamide], the IC50 was 21 nM.

As to `COc1ccc(C(=O)NCC(=O)N2CCN(c3ccccc3C(=O)Nc3ccncc3)CC2)cc1OC` [3,4-Dimethoxy-N-(2-oxo-2-{4-[2-(pyridin-4-ylcarbamoyl)-phenyl]-piperazin-1-yl}-ethyl)-benzamide], the IC50 was 4.6 nM.

Consider `COc1ccc(C(=O)NCC(=O)N2CCN(c3ccccc3C(=O)Nc3ccccc3)CC2)cc1OC` [3,4-Dimethoxy-N-{2-oxo-2-[4-(2-phenylcarbamoyl-phenyl)-piperazin-1-yl]-ethyl}-benzamide], for which the IC50 came out at 8.1 nM.

`Cc1cc(C)n(CC(=O)N2CCN(c3ccccc3NC(=O)c3cccc(Cl)c3)CC2)n1` [3-Chloro-N-(2-{4-[2-(3,5-dimethyl-pyrazol-1-yl)-acetyl]-piperazin-1-yl}-phenyl)-benzamide]: the IC50 was determined as 4.2 nM.

`Cc1cc(C)n(CC(=O)N2CC=C(c3ccc(Cl)cc3NC(=O)c3cccc(Cl)c3)CC2)n1` [3-Chloro-N-(5-chloro-2-{1-[2-(3,5-dimethyl-pyrazol-1-yl)-acetyl]-1,2,3,6-tetrahydro-pyridin-4-yl}-phenyl)-benzamide]: the IC50 came to 7 nM.

Regarding `O=C(Nc1cc(Cl)cnc1N1CCN(C(=O)CN2CCCCC2=O)CC1)c1cccc(Cl)c1` [3-Chloro-N-(5-chloro-2-{4-[2-(2-oxo-piperidin-1-yl)-acetyl]-piperazin-1-yl}-pyridin-3-yl)-benzamide], the IC50 came to 7.7 nM.

With `Cc1cc(C)n(CC(=O)N2CCCN(c3ncc(Cl)cc3NC(=O)c3cccc(Cl)c3)CC2)n1` [3-Chloro-N-(5-chloro-2-{4-[2-(3,5-dimethyl-pyrazol-1-yl)-acetyl]-[1,4]diazepan-1-yl}-pyridin-3-yl)-benzamide], the IC50 turned out to be 15 nM.

For the molecule `Cc1cc(C)n(CC(=O)N2CCN(c3ncc(Cl)cc3NC(=O)c3cccc(Cl)c3)CC2)n1` [3-Chloro-N-(5-chloro-2-{4-[2-(3,5-dimethyl-pyrazol-1-yl)-acetyl]-piperazin-1-yl}-pyridin-3-yl)-benzamide], the IC50 turned out to be 11.5 nM.

As to `Cc1nn(CC(=O)N2CCCN(c3ncc(Cl)cc3NC(=O)c3cccc(Cl)c3)CC2)c(C)c1Cl` [3-Chloro-N-(5-chloro-2-{4-[2-(4-chloro-3,5-dimethyl-pyrazol-1-yl)-acetyl]-[1,4]diazepan-1-yl}-pyridin-3-yl)-benzamide], the IC50 was determined as 15 nM.

For the molecule `O=C(Nc1cc(Cl)cnc1N1CCCN(C(=O)CN2CCCCC2)CC1)c1cccc(Cl)c1` [3-Chloro-N-{5-chloro-2-[4-(2-piperidin-1-yl-acetyl)-[1,4]diazepan-1-yl]-pyridin-3-yl}-benzamide], the IC50 amounted to 3 nM.

Take `COc1ccc(C(=O)NCC(=O)N2CCN(c3ccccc3C(=O)Nc3cccnc3)CC2)cc1F` [3-Fluoro-4-methoxy-N-(2-oxo-2-{4-[2-(pyridin-3-ylcarbamoyl)-phenyl]-piperazin-1-yl}-ethyl)-benzamide]: the IC50 worked out at 19.5 nM.

As to `COc1ccc(C(=O)NCC(=O)N2CCN(c3ccccc3C(=O)Nc3ccncc3)CC2)cc1F` [3-Fluoro-4-methoxy-N-(2-oxo-2-{4-[2-(pyridin-4-ylcarbamoyl)-phenyl]-piperazin-1-yl}-ethyl)-benzamide], the IC50 was 4.2 nM.

In the case of `COc1ccc(C(=O)N(C)CC(=O)N2CCN(c3ccccc3C(=O)Nc3ccncc3)CC2)cc1F` [3-Fluoro-4-methoxy-N-methyl-N-(2-oxo-2-{4-[2-(pyridin-4-ylcarbamoyl)-phenyl]-piperazin-1-yl}-ethyl)-benzamide], the concentration for half-maximal inhibition (IC50) was 15 nM.

On to `Cc1cc(C)n(CC(=O)N2CCN(c3ccccc3NC(=O)c3ccc(Cl)cc3)CC2)n1` [4-Chloro-N-(2-{4-[2-(3,5-dimethyl-pyrazol-1-yl)-acetyl]-piperazin-1-yl}-phenyl)-benzamide], for which the IC50 was determined as 4.7 nM.

For `O=C(NCC(=O)N1CCN(c2ccccc2C(=O)Nc2cccnc2)CC1)c1ccc(OC(F)F)cc1` [4-Difluormethoxy-N-(2-oxo-2-{4-[2-(pyridin-3-ylcarbamoyl)-phenyl]-piperazin-1-yl}-ethyl)-benzamide], the half-maximal inhibitory concentration (IC50) is 18.3 nM.

For `COc1ccc(C(=O)NCC(=O)N2CCN(c3ccccc3C(=O)Nc3cccnc3)CC2)cc1C` [4-Methoxy-3-methyl-N-(2-oxo-2-{4-[2-(pyridin-3-ylcarbamoyl)-phenyl]-piperazin-1-yl}-ethyl)-benzamide], the IC50 was determined as 11 nM.

On to `COc1ccc(C(=O)NCC(=O)N2CCN(c3ccccc3C(=O)Nc3cccnc3)CC2)cc1` [4-Methoxy-N-(2-oxo-2-{4-[2-(pyridin-3-ylcarbamoyl)-phenyl]-piperazin-1-yl}-ethyl)-benzamide], for which the IC50 was determined as 16 nM.

Take `COc1ccc(C(=O)NCC(=O)N2CCN(c3ccccc3C(=O)Nc3ccncc3)CC2)cc1` [4-Methoxy-N-(2-oxo-2-{4-[2-(pyridin-4-ylcarbamoyl)-phenyl]-piperazin-1-yl}-ethyl)-benzamide]: the IC50 turned out to be 3.4 nM.

In the case of `COc1ccc(C(=O)N(C)CC(=O)N2CCN(c3ccccc3C(=O)Nc3ccncc3)CC2)cc1` [4-Methoxy-N-methyl-N-(2-oxo-2-{4-[2-(pyridin-4-ylcarbamoyl)-phenyl]-piperazin-1-yl}-ethyl)-benzamide], the IC50 came out at 15 nM.

Turning to `Cc1cc(C)n(CC(=O)N2CCN(c3ccccc3NC(=O)c3cncc(Br)c3)CC2)n1` [5-Bromo-N-(2-{4-[2-(3,5-dimethyl-pyrazol-1-yl)-acetyl]-piperazin-1-yl}-phenyl)-nicotinamide], the IC50 stood at 5.7 nM.

In the case of `CS(=O)(=O)c1ccc(NC(=O)c2ccccc2N2CCN(C(=O)Cn3c(C(=O)O)cc4cc(Cl)ccc43)CC2)cc1` [5-Chloro-1-(2-{4-[2-(4-methanesulfonyl-phenylcarbamoyl)-phenyl]-piperazin-1-yl}-2-oxo-ethyl)-1-H-indole-2-carboxylic acid], the IC50 came to 25 nM.

On to `Cc1cc(C)n(CC(=O)N2CCN(c3ccc(Cl)cc3C(=O)Nc3nc4c(s3)CN(C)CC4)CC2)n1` [5-Chloro-2-{4-[2-(3,5-dimethyl-pyrazol-1-yl)-acetyl]-piperazin-1-yl}-N-(5-methyl-4,5,6,7-tetrahydro-thiazolo[5,4-c]pyridin-2-yl)-benzamide], for which the IC50 turned out to be 15 nM.

Consider `COc1cc(NC(=O)c2cc(F)ccc2N2CCN(C(=O)CN3CCCCC3=O)CC2)ccn1` [5-Fluoro-N-(2-methoxy-pyridin-4-yl)-2-{4-[2-(2-oxo-piperidin-1-yl)-acetyl]-piperazin-1-yl}-benzamide], for which the IC50 was determined as 9 nM.

Regarding `CN1CCc2nc(NC(=O)c3cc(F)ccc3N3CCN(C(=O)CN4Cc5ccccc5C4=O)CC3)sc2C1` [5-Fluoro-N-(5-methyl-4,5,6,7-tetrahydro-thiazolo[5,4-c]pyridin-2-yl)-2-{4-[2-(1-oxo-1,3-dihydro-isoindol-2-yl)-acetyl]-piperazin-1-yl}-benzamide], the IC50 was determined as 8.1 nM.

For the molecule `COc1cc(NC(=O)c2ccccc2N2CCN(C(=O)CN(C)C(=O)c3ncoc3C)CC2)ccn1` [5-Methyl-oxazole-4-carboxylic acid (2-{4-[2-(2-methoxy-pyridin-4-ylcarbamoyl)-phenyl]-piperazin-1-yl}-2-oxo-ethyl)-methyl-amide], the IC50 was 5.5 nM.

Take `Cc1cc(C)n(CC(=O)N2CCN(c3ccccc3NC(=O)c3ccc(Cl)nc3)CC2)n1` [6-Chloro-N-(2-{4-[2-(3,5-dimethyl-pyrazol-1-yl)-acetyl]-piperazin-1-yl}-phenyl)-nicotinamide]: the IC50 came out at 15 nM.

For `O=C(NCC(=O)N1CCN(c2ccccc2C(=O)Nc2cccnc2)CC1)c1ccc2c(c1)OCO2` [Benzo[1,3]dioxole-5-carboxylic acid (2-oxo-2-{4-[2-(pyridin-3-ylcarbamoyl)-phenyl]-piperazin-1-yl}-ethyl)-amide], the half-maximal inhibitory concentration (IC50) worked out at 13.3 nM.

In the case of `Cc1cc(C)n(CC(=O)N2CCN(c3ccccc3C(=O)Nc3cnc4c(c3)c(C)nn4C)CC2)n1` [N-(1,3-Dimethyl-1H-pyrazolo[3,4-b]pyridin-5-yl)-2-{4-[2-(3,5-dimethyl-pyrazol-1-yl)-acetyl]-piperazin-1-yl}-benzamide], the IC50 was 8.7 nM.

`Cc1cc(C)n(CC(=O)N2CCN(c3ccccc3C(=O)Nc3cnc4c(c3)c(=O)n(C)c(=O)n4C)CC2)n1` [N-(1,3-Dimethyl-2,4-dioxo-1,2,3,4-tetrahydro-pyrido[2,3-d]pyrimidin-6-yl)-2-{4-[2-(3,5-dimethyl-pyrazol-1-yl)-acetyl]-piperazin-1-yl}-benzamide]: the concentration for half-maximal inhibition (IC50) turned out to be 11.5 nM.

As for `Cc1cc(C)n(CC(=O)N2CCN(c3ccccc3C(=O)Nc3ccnc(Br)c3)CC2)n1` [N-(2-Bromo-pyridin-4-yl)-2-{4-[2-(3,5-dimethyl-pyrazol-1-yl)-acetyl]-piperazin-1-yl}-benzamide], the IC50 amounted to 4.1 nM.

Take `Cc1cc(C)n(CC(=O)N2CCN(c3ccccc3C(=O)Nc3ccnc(Cl)c3)CC2)n1` [N-(2-Chloro-pyridin-4-yl)-2-{4-[2-(3,5-dimethyl-pyrazol-1-yl)-acetyl]-piperazin-1-yl}-benzamide]: the IC50 is 7.2 nM.

In the case of `COc1cc(NC(=O)c2ccccc2N2CCN(C(=O)CN3Cc4ccccc4C3=O)CC2)ccn1` [N-(2-Methoxy-pyridin-4-yl)-2-{4-[2-(1-oxo-1,3-dihydro-isoindol-2-yl)-acetyl]-piperazin-1-yl}-benzamide], the IC50 was 3.4 nM.
